Entries after “also recorded” stand apart in the source; their conditions may differ. Positions of bridges follow the written chain, without caps; N, C: chain ends. Residues, ends and D or L forms follow the SMILES beside them. No end group written: not given here.
Tests used:
Erk½ = experiment: Effect of pharmacological inhibitors on INGAP-induced Erk½ phosphorylation in RIN-m5F cells; assay type: cell-based, rat; conditions: for Effect of inhibitor on INGAP-induced Erk½ phosphorylation: inhibitor pretreatment, 10 min growth factor
Description: 1×10^6 cells were plated in 60 mm plates for 48 hours followed by a 24-h starvation in serum-free medium. Prior to addition of growth factors, cells were pretreated for 30-40 min with the indicated inhibitors, except for Pertussis Toxin (Ptx)(24 h pretreatment). After a 10 min treatment with growth factors, cells were placed on ice and lysed, as described in the Experimental Procedures. Blots (30 μg of proteins) were incubated with Phospho-Erk½ antibody (or with total Erk antibody after stripping) and developed using ECL reagent. Quantification of Erk phosphorylation relative to total Erk and time 0 min control (=1, shown as a dotted line) was performed as described above. (A): Inhibitors of GPCR (Ptx, 100 ng/m1), adenylate cyclase (SQ22536, 250 μM) and PKA (PKi, 100nM; H89, 1μM). (B): inhibitors of PKC (Bis, 1 μM), PI3K (Wm, 100 nM), Src(PP2, 100nM), EGFR(AG1478, 100nM) and Raf Inhibitor l(R-1, 100nM), or DMSO as a solvent (*: p<0.05).
(§1) To investigate signaling events implicated in INGAP induced proliferation, we employed specific pharmacological inhibitors of Raf (Raf inhibitor 1), PI3 K (wortmannin), PKC (Bis), PKA (H89, PKi), Adenylate cyclase (SQ22536), Src (PP2) and EGFR (AG1478). In addition, Pertussis toxin (Ptx) was used to examine whether INGAP actions were mediated by a GPCR. Effectiveness of these inhibitors was judged by Erk½ phosphorylation after 10 min of treatment with INGAP or EGF or Ex-4, and by BrdU incorporation after 24 h.

RIN-m5F cells [1] = experiment: Effect of pharmacological inhibitors on INGAP-induced BrdU incorporation in RIN-m5F cells; assay type: cell-based, rat; conditions: inhibitor pretreatment, 24 h
Description: Cells were plated in chamber slides and subjected to 30−40 min pretreatment with the indicated inhibitors prior to the addition of growth factors and incubated for 24 h. […] BrdU was added for the last three hours of treatment followed by fixation in Methanol and immunostaining for BrdU. Data are presented as a ratio of BrdU(+) cells (%) in treated versus untreated control. Results are means±S.E. of three independent experiments (*: p<0.05, †: p<0.001).
as §1

Akt = Akt phosphorylation in RIN-m5F cells; assay type: cell-based, rat; conditions: time course
RIN-m5F cells [2] = experiment: BrdU incorporation (proliferation) in RIN-m5F cells, 24 h; assay type: cell-based, rat; conditions: positive control
Description: (A): INGAP increased BrdU incorporation. RIN-m5F cells were treated with indicated amounts of INGAP-P or r-INGAP for 24 h in chamber slides. Exendin 4 (Ex4) and EGF were used as controls. 50 μM BrdU was added for the last three hours of treatment followed by fixation in methanol and immunostaining for BrdU. Data are presented as a ratio of BrdU(+) cells (%) in INGAP-treated to untreated control. Results are means±S.E. of three independent experiments (*: p<0.05, §: p<0.001, compared to untreated control). (B): INGAP induced phosphorylation of Erk½ in RIN-m5F. RIN-m5F cells (1×10^6) plated in 60 mm tissue culture plates were treated with INGAP for the times indicated. Blots (30 μg protein) were probed with anti-Erk½-Phospho (Thr202/Tyr204) antibody, followed by stripping/reprobing with anti-total Erk½ antibody (Cell Signaling) and quantified by densitometry, using ImageJ software. (C): Quantification of relative Erk½ phosphorylation measured as a ratio of Phospho-Erk½ to total Erk½ and shown as a Fold Change relative to the 0 min time point. […]
Cells plated in 8-well or 4-well chamber slides (5×10^4 or 1×10^5 cells per well) were treated for 24 h with INGAP, EGF or Ex 4, as described above, and 50 μM BrdU was added during the last 3 hours of treatment. […] BrdU-positive and negative nuclei were counted (total 200 per well) and the percentage of BrdU-positive nuclei was calculated (FIG. 36).

[3] = Stability of 5-FAM labeled INGAP analogs in serum and pancreas of non-diabetic mice after IP injection; assay type: in vivo; conditions: 500 mg/mouse IP, 10 min to 2 h
Description: Prior to the start of the STZ experiments, we tested the stability of INGAP analogs in the serum of non-diabetic mice by injecting 5-FAM labeled INGAP analogs (custom made at Canpeptide, Pointe Claire) at […] IP . The analogs were FAM labeled to determine the post-injection time needed for the peptides to reach the pancreas and to potentially identify the target cells. Mice were sacrificed after 10 min, 30 min, 1 h and 2 h (three mice per group) and blood and tissue samples were collected for processing. Blood serum was precipitated with methanol (1:3) to remove serum proteins and the resulting supernatant was analyzed by HPLC to detect presence of INGAP peptides.
These experiments need to be repeated by using cryosections vs paraffin section to minimize a potential loss of the fluorescence.

[4] = Peptide stability in RPMI-1640 medium with 25% FBS, HPLC; assay type: in vitro ADME; conditions: for Comparative peptide stability in FBS: 50 μM peptide; for half-life at 50 μM: bovine
Description: 50 μM peptides were incubated in RPMI-1640 medium with 25% FBS for the times indicated. Following ethanol precipitation of serum proteins, samples were analyzed by HPLC. To compare dynamics of peptide degradation HPLC profiles were superimposed as shown.
50 μM INGAP-PC and INGAP 19C were incubated in RPMI-1640 medium with 25% FBS for the times indicated. Following ethanol precipitation of serum proteins, samples were analyzed by HPLC. To compare dynamics of peptide degradation, HPLC profiles were superimposed as shown.
Degradation profiles of INGAP-P and INGAP-19 peptides in presence of serum were determined (FIG. 20). 50 μM peptides were incubated in RPMI-1640 medium with 25% FBS for the times indicated. Following ethanol precipitation of serum proteins, samples were analyzed by HPLC. To compare dynamics of peptide degradation HPLC profiles were superimposed as shown.
Time-course studies of in vitro incubation of INGAP-PC and INGAP-19C peptides in FBS were also performed (FIG. 21). 50 μM INGAP-PC and INGAP 19C were incubated in RPMI-1640 medium with 25% FBS for the times indicated. Following ethanol precipitation of serum proteins, samples were analyzed by HPLC. To compare dynamics of peptide degradation, HPLC profiles were superimposed as shown.

[5] = tested on: STZ (streptozotocin)-induced diabetes; parameters: species or system mice; conditions: mouse, in vivo, ip
Description: In this part of the study, we used a well established model of STZ (streptozotocin)-induced diabetes, resulting in a substantial destruction of beta cell mass. Previous studies conducted in our lab have shown islet neogenic effects of INGAP-peptide (15 L) and INGAP protein after the 8-week administration daily.
Referring to FIG. 42, C57BL/6 J mice (Charles River) 20-25 g, were rendered diabetic by a single injection of 150 mg/kg of STZ. The animals with blood glycemias of 15-30 mM after 7 days were used for the experiment. At 7 days, mice were randomized into 5 groups, 10 mice per group, equal representation of each glycemia level, (average glycemia per group being 24.4+0.0167 mM) and were treated with […] of one of the analogs, IP, daily for 10 weeks. Blood glycemia values were taken weekly from the tip of the tail (fasting and/or non-fasting). The weight of animals was also taken weekly.
After 10 weeks of treatment, the animals were sacrificed and the pancreata were weighed and processed for RNA extraction (still ongoing) and Immunocytochemistry.

## COc1cc2ncnc(Nc3cccc(Cl)c3)c2cc1OC [AG1478]
Erk½
  Effect of inhibitor on INGAP-induced Erk½ phosphorylation: not affected

## Nc1ncnc2c1ncn2C1CCCO1 (stereo not drawn) [SQ22536]
Erk½
  Effect of inhibitor on INGAP-induced Erk½ phosphorylation: slightly increased it

## COc1cccc(-c2cc(=O)c3ccccc3o2)c1N [PD98059]
RIN-m5F cells [1]
  Effect of inhibitor on BrdU incorporation induced by growth factors: inhibition
Erk½
  Effect of inhibitor on INGAP-induced Erk½ phosphorylation: inhibition

## EGF: positive control growth factor, signals through a classical RTK pathway
Akt
  Akt phosphorylation: early activation of Akt
RIN-m5F cells [2]; 10 ng/ml
  BrdU incorporation, increase compared to negative control: 1.49 ×

## O=S(=O)(NCCNC/C=C/c1ccc(Br)cc1)c1cccc2cnccc12 [H89]
RIN-m5F cells [1]
  Effect of inhibitor on BrdU incorporation induced by growth factors: reduced BrdU incorporation in rINGAP treated cells

## CC[C@H](C)[C@@H]1NC(=O)[C@H](Cc2c[nH]c3ccccc23)NC(=O)[C@H]([C@@H](C)CC)NC(=O)[C@@H](N)CSSC[C@@H](C(=O)O)NC(=O)[C@H](Cc2c[nH]c3ccccc23)NC(=O)CNC(=O)[C@H](CO)NC(=O)CNC(=O)[C@H](CC(N)=O)NC(=O)[C@@H]2CCCN2C(=O)[C@H](CC(C)C)NC(=O)[C@H]([C@@H](C)O)NC(=O)CNC(=O)[C@H](Cc2c[nH]cn2)NC(=O)[C@H](CO)NC(=O)[C@@H]2CCCN2C(=O)[C@H](CC(=O)O)NC(=O)[C@H](Cc2c[nH]cn2)NC(=O)[C@H](CC(C)C)NC(=O)CNC1=O [INGAP-19C] (H-CIWIGLHDPSHGTLPNGSGWC-OH; disulfide 1-21)
[3]
  Presence of peptide in blood serum after injection (HPLC): still detectable at 2 h
[4]; RPMI-1640 with 25% FBS
  Comparative peptide stability in FBS: highest stability; also recorded: more stable than linear 15-mer (INGAP-P) or 19-mer (INGAP-19) peptides
[4]; 48 h, 50 μM, RPMI-1640 with 25% FBS
  Degradation in presence of serum: no degradation
[4]; culture medium, preliminary HPLC data
  Time stable in culture medium: up to 48 h
[5]
  Losses of animals in group: 1

## CC(C)(C)n1nc(-c2ccc(Cl)cc2)c2c(N)ncnc21 [PP2]
RIN-m5F cells [1]
  Effect of inhibitor on BrdU incorporation induced by growth factors: inhibited both Erk½ phosphorylation (FIG. 8B) and proliferation (FIG. 16) stimulated by r-INGAP, but not by INGAP-P
Erk½
  Effect of inhibitor on INGAP-induced Erk½ phosphorylation: inhibited both Erk½ phosphorylation (FIG. 8B) and proliferation (FIG. 16) stimulated by r-INGAP, but not by INGAP-P

## IGLHDPSHGTLPNGS [INGAP-P, N′-IGLHDPSHGTLPNGS-C′]
[4]; RPMI-1640 with 25% FBS
  Comparative peptide stability in FBS: degraded at a similar rate
[4]; culture medium (RPMI-1640) with 25% fetal bovine serum, culture medium, preliminary HPLC data
  half-life at 50 μM: 4 to 6 h

## CC[C@H](C)[C@@H]1NC(=O)[C@@H](N)CSSC[C@@H](C(=O)O)NC(=O)[C@H](CO)NC(=O)CNC(=O)[C@H](CC(N)=O)NC(=O)[C@@H]2CCCN2C(=O)[C@H](CC(C)C)NC(=O)[C@H]([C@@H](C)O)NC(=O)CNC(=O)[C@H](Cc2c[nH]cn2)NC(=O)[C@H](CO)NC(=O)[C@@H]2CCCN2C(=O)[C@H](CC(=O)O)NC(=O)[C@H](Cc2c[nH]cn2)NC(=O)[C@H](CC(C)C)NC(=O)CNC1=O [INGAP-PC, N′-CIGLHDPSHGTLPNGSC-C′] (H-CIGLHDPSHGTLPNGSC-OH; disulfide 1-17)
[4]; buffer, culture medium, preliminary HPLC data
  half-life: 4 to 6 h
[5]
  Losses of animals in group: no losses

## Pertussis toxin [Ptx]
Erk½; 24 h exposure to inhibitor, 10 min INGAP
  Inhibition of INGAP-induced activation of Erk½: 40%

## Exendin 4
Akt
  Akt phosphorylation: strongest activation of Akt
RIN-m5F cells [2]; 10 nM
  BrdU incorporation, increase compared to negative control: 1.56 ×

## IWIGLHDPSHGTLPNGSGW [INGAP-19, N′-IWIGLHDPSHGTLPNGSGW-C′]
[3]
  Presence of peptide in blood serum after injection (HPLC): undetectable at 1 h
[4]; RPMI-1640 with 25% FBS
  Comparative peptide stability in FBS: no advantage of INGAP-19 over INGAP-P
[4]; fetal bovine serum (25%) in RPMI-1640 culture medium, culture medium, preliminary HPLC data
  half-life at 50 μM: 4 to 6 h

From patent US20160002310A1, “MODIFIED INGAP PEPTIDES FOR TREATING DIABETES” (THE ROYAL INSTITUTE FOR THE ADVANCEMENT OF LEARNING/MCGILL …, priority 2013, published 2016)
